Values quoted from earlier work in patent EP0266968A2, “Gelled ointment of vasodilating agent” (Cohen, Gérard G., priority 1986, dated 1988).

Test system: penile arteries

In the case of `COc1ccc(Cc2nccc3cc(OC)c(OC)cc23)cc1OC` [papaverine], the “erections in the organic group” value (29 organic impotent males, intracavernous injection) is given as “delayed, weaker and shorter erections”, the “duration of penile erections” value (40 to 160 mg injected intracavernously) is given as “approximately 2 hours” and the “patients whose erections improved significantly” value (63 patients with angiogenic impotence, repeated intracavernous injections completed by infusion of heparinized saline, mean follow up of one year) is given as 66%. For the same compound, the “haemodynamic and radiologic studies” value (done concomitantly with intracavernous injection) was “strong vasodilation in the penile arteries (even when pathologic) and diminished outflow from the cavernous bodies”.
